Experimental data from PMC12736958 (Pharmaceutics, 2025).
Where “and” joins values, the source holds several entries; their conditions need not be identical. Identical values can stand only once. Each block holds one compound with its values, some of them ahead of it.

Assays:
[1] = equilibrium solubility of crystalline Cur in excipient solutions; format: physicochemical; conditions: pure water, pH 7.0, 37 °C, filtered 0.22 μm, read-out: equilibrium solubility (Cur con.)
Procedure: Excess crystalline Cur was suspended in each solution, vortexed (1 min), sonicated (10 min), and incubated (37 °C, 24 h). After incubation, suspensions were filtered (0.22 μm), and Cur concentration in the filtrate was quantified using HPLC/UV-Vis (HPLC/UV-Vis Method section). All experiments were performed in quadruplicate (n = 4).
Cur content in in vitro dissolution samples was quantified using a Waters 2695 Alliance HPLC system (Waters Corporation, Milford, MA, USA) equipped with a Waters 2998 photodiode array (PDA) detector. Separation was performed on an XBridge® C18 column (4.6 × 250 mm, 5.0 μm; Waters) maintained at 25 °C. The mobile phase, composed of water and methanol (80:20, v/v), was delivered isocratically at a flow rate of 1.0 mL/min. The injection volume was 10 μL, and detection was performed at 430 nm, and Cur eluted at approximately 4.80 min. […] All data were acquired in triplicate (n = 3) and processed using Empower®3 Software (Waters).

[2] = cited from earlier work
[3] = in vivo pharmacokinetic study in rats; parameters: species or system Sprague-Dawley (SD) rats; conditions: rat; for plasma concentration of Cur, individual animals: Rat1-Rat5, listed as Intravenous Cur
Procedure: Male Sprague-Dawley (SD) rats (200 ± 20 g) were supplied by SPF Biotechnology Co., Ltd. (Beijing, China) and housed under standard laboratory conditions throughout the study. All animals were housed in a controlled environment (22 ± 2 °C, 55 ± 10% humidity) under a 12/12 h light/dark cycle, with free access to a standard laboratory rodent diet and water. A 12 h fasting period was implemented prior to the experiment, with water permitted ad libitum. All animal procedures were performed in strict accordance with protocols approved by the Biological and Medical Ethics Committee of Minzu University of China.
After fasting for 12 h (with free access to water), SD rats (n = 25) were randomly divided into five groups (n = 5 per group). Group 1: crystalline Cur (i.v., dissolved in saline with 5% DMSO). Group 2: crystalline Cur (p.o., suspended in 0.5% CMC-Na). Group 3: Cur/P188 ASD (1:8, w/w; p.o.). Group 4: Cur/P188/TW80 ASD (1:8:1, w/w/w; p.o.). Group 5: Cur/P188/SLS ASD (1:8:1, w/w/w; p.o.). Group 1 received the formulation via tail vein injection, while Groups 2–5 were suspended in water (pH 7.0) and administered orally by gavage at a Cur-equivalent dose of 40 mg/kg. Blood samples (0.2 mL) were collected from each rat at 4, 7, 10, 20, and 30 min, and 1, 2, 4, and 24 h post-dosing. Plasma was separated by centrifugation (5000 rpm, 5 min, 4 °C) and stored at −80 °C until analysis.
Cur was extracted from 50 μL of plasma using 600 μL of ethyl acetate and quantified by LC-MS/MS, with diclofenac sodium (20 μL, 200 ng/mL) serving as the internal standard. Blank plasma was obtained from a separate control group (n = 5) that received water only. Analysis of these blank samples confirmed the absence of significant matrix interference, thereby validating the analytical method.
(§1) Cur quantification in cellular and rat plasma samples was carried out using a SCIEX QTRAP® 5500 LC-MS/MS system coupled with a SCIEX ExionLC^TM AC system (AB SCIEX, Framingham, MA, USA).
Separation was achieved on an Acquity UPLC® BEH C18 column (100 × 2.1 mm, 1.7 μm; Waters) maintained at 40 °C. The mobile phase consisted of (A) 0.1% formic acid in water and (B) acetonitrile (ACN), delivered at a flow rate of 0.14 mL/min with the following gradient program: 10% B (0–1.0 min), increased to 95% B (1.0–9.0 min), and returned to 10% B (9.0–12.0 min). The injection volume was 5 μL. The retention times were approximately 4.85 min for Cur and 6.70 min for diclofenac sodium, used as the internal standard (IS).
Mass spectrometric detection was performed using an IonDrive^TM Turbo V ion (SCIEX, Framingham, MA, USA) source operating in negative electrospray ionization (ESI) mode. Quantification was conducted via multiple reaction monitoring (MRM) at m/z 367.1→133.9 for Cur, and m/z 294.1→250.0 for diclofenac sodium (IS). The assay was linear over the concentration range of 2-500 ng/mL (R^2 > 0.999). All data were acquired in triplicate (n = 3) and processed using MultiQuant software version 3.0.2 (AB SCIEX).
Pharmacokinetic parameters were calculated using non-compartmental analysis with DAS 2.0 software (Boying Corporation, Beijing, China). Data analysis was performed using GraphPad Prism 10.1.2 software. The result is expressed as mean ± standard deviation (SD). For pairwise comparisons between groups, t-tests were conducted. For multiple group comparisons, one-way analysis of variance (ANOVA) was performed, followed by Tukey’s post hoc test for multiple comparisons. Prior to ANOVA, the assumptions of normality and homogeneity of variances were verified using the Shapiro–Wilk test and Bartlett’s test, respectively. p < 0.05 indicates statistically significant differences.

[4] = in vitro non-sink dissolution; format: physicochemical; conditions: Cur-equivalent 1 mg/mL, water pH 7.0, 37 °C
Procedure: (§2) The dissolution behavior of Cur formulations was evaluated under non-sink conditions. Tested formulations included pure amorphous Cur, binary Cur/P188 ASD (1:8, w/w), and ternary Cur/P188/TW80 and Cur/P188/SLS ASDs (1:8:1, w/w/w). Each sample was introduced into 6 mL of water (pH 7.0) to achieve a Cur-equivalent concentration of 1 mg/mL at 37 °C. Aliquots (0.4 mL) were collected at 10, 20, and 45 min, as well as at 1h and 2 h, and immediately centrifuged (10,000 rpm, 3 min, 25 °C) to separate the supernatant from the precipitate. (1) The supernatant was diluted 1:2 (v/v) with methanol and analyzed for Cur concentration via HPLC/UV-Vis; (2) The precipitate was vacuum-dried and analyzed for crystallinity using PXRD.
All dissolution experiments were conducted in triplicate (n = 3).
Cur content in in vitro dissolution samples was quantified using a Waters 2695 Alliance HPLC system (Waters Corporation, Milford, MA, USA) equipped with a Waters 2998 photodiode array (PDA) detector. Separation was performed on an XBridge® C18 column (4.6 × 250 mm, 5.0 μm; Waters) maintained at 25 °C. The mobile phase, composed of water and methanol (80:20, v/v), was delivered isocratically at a flow rate of 1.0 mL/min. The injection volume was 10 μL, and detection was performed at 430 nm, and Cur eluted at approximately 4.80 min. […]

[5] = PXRD crystallinity of precipitates collected during dissolution; format: physicochemical; conditions: precipitates collected at 20 min and 1 h of non-sink dissolution
Procedure: PXRD was used to characterize the crystalline nature of both freshly prepared Cur ASDs and precipitates collected during their dissolution. Measurements were conducted on a Rigaku Smartlab diffractometer (Rigaku Corporation, Tokyo, Japan) configured in Bragg–Brentano geometry using Cu Kα1 radiation. Diffractograms were collected over a 2θ range of 0° to 60° with a step size of 0.01°.
as §2

MDCK cells [6] = experiment: cytotoxicity assay (CCK-8 cell viability); format: cell-based, canine; conditions: 4 h treatment
Procedure: Madin-Darby Canine Kidney (MDCK) cells were seeded in 96-well plates (1 × 10^5 cells/well) and cultured for 24 h at 37 °C in complete DMEM (10% FBS, 1% penicillin–streptomycin) under 5% CO2. Cells were treated for 4 h with 100 µL of complete DMEM media (pH 7.4) containing crystalline Cur, amorphous Cur, binary Cur/P188 ASD (1:8, w/w), or ternary Cur/P188/TW80 or Cur/P188/SLS ASDs (1:8:1, w/w/w), at Cur-equivalent concentrations of 0 (vehicle), 2, 10, 25, 50, 100, and 200 μg/mL. After treatment, cells were washed three times with PBS (pH 7.4). Cell viability was assessed using a CCK-8 assay: 100 µL of serum-free DMEM and 10 µL of CCK-8 reagent were added to each well, followed by incubation for 2 h. Absorbance was measured at 450 nm using a Multiskan GO microplate reader (Thermo Fisher Scientific, Vantaa, Finland).
Cell viability was calculated according to the following equation:Viability (%) = [(As − Aᵦ)/(Ac − Aᵦ)] × 100% where
• As is the absorbance of experimental wells (cells + treatment + CCK-8); • Ac is the absorbance of control wells (cells + medium + CCK-8, no drug); • Aᵦ is the absorbance of blank wells (medium + CCK-8, no cells, no drug).
All experiments were performed in quintuplicate (n = 5).

MDCK cells [7] = experiment: cellular uptake study (LC-MS/MS of intracellular Cur); format: cell-based, canine; conditions: 10 min incubation, 5 μg Cur-equivalent (10 μg/mL)
Procedure: MDCK cells were seeded in 24-well plates and cultured following the procedures described in Cytotoxicity Assay section. The cells were treated with 500 µL of complete DMEM medium (pH 7.4) containing crystalline Cur, amorphous Cur, binary Cur/P188 ASD (1:8, w/w), or ternary Cur/P188/TW80 or Cur/P188/SLS ASDs (1:8:1, w/w/w), at Cur-equivalent dose of 5 µg per well. After 10 min of incubation, the treatment was terminated by immediate removal of the medium. The cells were then washed three times with ice-cold PBS, lysed with 200 µL of 0.1% SDS (assisted by sonication), and dissolved in methanol at a 1:2 (v/v) ratio. The total intracellular Cur content was quantified using LC-MS/MS. All experiments were performed in quadruplicate (n = 4).
as §1
Separation was achieved on an Acquity UPLC® BEH C18 column (100 × 2.1 mm, 1.7 μm; Waters) maintained at 40 °C. […]
Mass spectrometric detection was performed using an IonDrive^TM Turbo V ion (SCIEX, Framingham, MA, USA) source operating in negative electrospray ionization (ESI) mode. Quantification was conducted via multiple reaction monitoring (MRM) at m/z 367.1→133.9 for Cur, and m/z 294.1→250.0 for diclofenac sodium (IS). […]

[8] = male, Sprague-Dawley, plasma, iv, 40 mg/kg Cur-equivalent

solubility thermodynamic at 24 h [1]: < 0.1 µg/mL
SMILES: COc1cc(/C=C/C(=O)CC(=O)/C=C/c2ccc(O)c(OC)c2)ccc1O [Curcumin]
logP [2]: ≈ 3

Cmax [3, 8]: 334 ± 9.6 ng/mL
Tmax [3, 8]: 6 min
half-life [3, 8]: 1.8 ± 0.2 h
MRT last ([3]; male, Sprague-Dawley, plasma, iv, i.v., 40 mg/kg Cur-equivalent, read-out: MRT(0–24)): 5.2 ± 0.2 h
concentration at 0.07 h ([3]; male, Sprague-Dawley, plasma, iv, 40 mg/kg, i.v., 40 mg/kg, 0.07 h, Rat1-Rat5, read-out: plasma concentration of Cur, individual animals): 331 ng/mL
concentration at 0.12 h ([3]; male, Sprague-Dawley, plasma, iv, 40 mg/kg, i.v., 40 mg/kg, 0.12 h, Rat1-Rat5, read-out: plasma concentration of Cur, individual animals): 261 ng/mL
concentration at 0.17 h ([3]; male, Sprague-Dawley, plasma, iv, 40 mg/kg, i.v., 40 mg/kg, 0.17 h, Rat1-Rat5, read-out: plasma concentration of Cur, individual animals): 220 ng/mL
concentration at 0.33 h ([3]; male, Sprague-Dawley, plasma, iv, 40 mg/kg, i.v., 40 mg/kg, 0.33 h, Rat1-Rat5, read-out: plasma concentration of Cur, individual animals): 181 ng/mL
concentration at 0.5 h ([3]; male, Sprague-Dawley, plasma, iv, 40 mg/kg, i.v., 40 mg/kg, 0.5 h, Rat1-Rat5, read-out: plasma concentration of Cur, individual animals): 160 ng/mL
concentration at 1 h ([3]; male, Sprague-Dawley, plasma, iv, 40 mg/kg, i.v., 40 mg/kg, 1 h, Rat1-Rat5, read-out: plasma concentration of Cur, individual animals): 85.2 ng/mL
concentration at 2 h ([3]; male, Sprague-Dawley, plasma, iv, 40 mg/kg, i.v., 40 mg/kg, 2 h, Rat1-Rat5, read-out: plasma concentration of Cur, individual animals): 50.6 ng/mL
concentration at 4 h ([3]; male, Sprague-Dawley, plasma, iv, 40 mg/kg, i.v., 40 mg/kg, 4 h, Rat1-Rat5, read-out: plasma concentration of Cur, individual animals): 25.9 ng/mL
concentration at 24 h ([3]; male, Sprague-Dawley, plasma, iv, 40 mg/kg, i.v., 40 mg/kg, 24 h, Rat1-Rat5, read-out: plasma concentration of Cur, individual animals): 8.3 ng/mL
SMILES: COc1cc(/C=C/C(=O)CC(=O)/C=C/c2ccc(O)c(OC)c2)ccc1O [Solution Cur, Curcumin]
plasma concentration of Cur, individual animals ([3]; i.v., 40 mg/kg, 0.07 h): 340.1 ng/mL and 337.1 ng/mL and 323.9 ng/mL and 342.5 ng/mL
plasma concentration of Cur, individual animals ([3]; i.v., 40 mg/kg, 0.12 h): 255.2 ng/mL and 257.9 ng/mL and 258.8 ng/mL and 264.3 ng/mL
plasma concentration of Cur, individual animals ([3]; i.v., 40 mg/kg, 0.17 h): 215.1 ng/mL and 212.7 ng/mL and 219.1 ng/mL and 237.5 ng/mL
plasma concentration of Cur, individual animals ([3]; i.v., 40 mg/kg, 0.33 h): 192.4 ng/mL and 207.1 ng/mL and 170.5 ng/mL and 217.7 ng/mL
plasma concentration of Cur, individual animals ([3]; i.v., 40 mg/kg, 0.5 h): 130.3 ng/mL and 126.5 ng/mL and 120.8 ng/mL and 194.6 ng/mL
plasma concentration of Cur, individual animals ([3]; i.v., 40 mg/kg, 1 h): 96.5 ng/mL and 101.5 ng/mL and 102.2 ng/mL and 65.3 ng/mL
plasma concentration of Cur, individual animals ([3]; i.v., 40 mg/kg, 2 h): 63.9 ng/mL and 65.1 ng/mL and 75.3 ng/mL and 40.5 ng/mL
plasma concentration of Cur, individual animals ([3]; i.v., 40 mg/kg, 4 h): 35.9 ng/mL and 25.7 ng/mL and 32.9 ng/mL and 22.5 ng/mL
plasma concentration of Cur, individual animals ([3]; i.v., 40 mg/kg, 24 h): 10.2 ng/mL and 9.5 ng/mL and 8.5 ng/mL and 8.7 ng/mL

dissolved Cur concentration reached over 2 h [4]: ~ 1 μg/mL
crystallinity of precipitates during dissolution (PXRD) [5]: crystallized immediately upon hydration
cellular uptake (% of the administered dose) (MDCK cells [7]): 1.4%
SMILES: COc1cc(/C=C/C(=O)CC(=O)/C=C/c2ccc(O)c(OC)c2)ccc1O [amorphous Cur, Curcumin]
IC50 (cytotoxicity, Cur-equivalent) (MDCK cells [6]): 54.7 µg/mL
